Measured values as given in ChEMBL document CHEMBL1201862, “PubChem BioAssay data set” (2004).
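Compound exposure: 48 hours, 5 concentrations, 96-well plates. At the GI50, growth is halved.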 Activity calls are given as the source filed them. Rule as the data show it: active = GI50 up to about 1.1 µM and inactive = higher.

Key:
Assay in all cases: NCI anticancer screen, dose series, 48 h
SF-295 = test system: SF-295
SK-MEL-2 = test system: SK-MEL-2
RPMI-8226 = test system: RPMI-8226
A549 = test system: A549
NCI/ADR-RES = test system: NCI/ADR-RES
HCT-15 = test system: HCT-15
SK-MEL-5 = test system: SK-MEL-5
SK-OV-3 = test system: SK-OV-3
NCI-H460 = test system: NCI-H460
NCI-H226 = test system: NCI-H226
UO-31 = test system: UO-31
LOX IMVI = test system: LOX IMVI
HL-60 = test system: HL-60
COLO 205 = test system: COLO 205
CAKI-1 = test system: CAKI-1
SK-MEL-28 = test system: SK-MEL-28
786-0 = test system: 786-0
Hs-578T = test system: Hs-578T
Malme-3M = test system: Malme-3M

Compound	GI50 (SF-295)	GI50 (SK-MEL-2)	GI50 (RPMI-8226)	GI50 (A549)	GI50 (NCI/ADR-RES)	GI50 (HCT-15) [µM]	GI50 (SK-MEL-5)	GI50 (SK-OV-3)	GI50 (NCI-H460)	GI50 (NCI-H226)	GI50 (UO-31)	GI50 (LOX IMVI)	GI50 (HL-60)	GI50 (COLO 205)	GI50 (CAKI-1)	GI50 (SK-MEL-28)	GI50 (786-0)	GI50 (Hs-578T)	GI50 (Malme-3M)
O=C(CCc1ccc(O)c(O)c1)NCCc1cc(O)cc(O)c1	> 100 µM (inactive)	> 100 µM (inactive)	> 100 µM (inactive)	> 100 µM (inactive)	> 100 µM (inactive)	> 100	> 100 µM (inactive)	> 100 µM (inactive)	> 100 µM (inactive)	> 100 µM (inactive)	63.5 µM (inactive)	46 µM (inactive)	> 100 µM (inactive)	> 100 µM (inactive)	> 100 µM (inactive)	> 100 µM (inactive)	> 100 µM (inactive)	> 100 µM (inactive)	
O=C1C=CC(=O)c2c1cc([N+](=O)[O-])c1ccoc21	19.1 µM (inactive)	18.4 µM (inactive)	4.37 µM (inactive)	20.9 µM (inactive)	22.6 µM (inactive)	23.3	16.4 µM (inactive)	20.4 µM (inactive)	18.2 µM (inactive)	26.6 µM (inactive)	3.01 µM (inactive)	9.66 µM (inactive)	0.743 µM (active)	2.49 µM (inactive)	1.6 µM (inactive)	20.1 µM (inactive)	1.77 µM (inactive)	28.1 µM (inactive)	
CCN(CC)CCn1c(=O)c2cccnc2n2c3c(=O)n(C)c(=O)n(C)c3nc12	> 100 µM (inactive)	> 100 µM (inactive)	> 100 µM (inactive)	59.4 µM (inactive)	> 100 µM (inactive)	11.6	47.1 µM (inactive)	> 100 µM (inactive)	36.6 µM (inactive)	95.1 µM (inactive)	86.1 µM (inactive)		69 µM (inactive)	70.3 µM (inactive)	67.9 µM (inactive)	> 100 µM (inactive)	> 100 µM (inactive)	> 100 µM (inactive)	65.2 µM (inactive)
COc1ccc(-c2cc(-c3cc(C)cc(Br)c3O)no2)cc1	3.45 µM (inactive)	22.2 µM (inactive)	11.2 µM (inactive)	13.3 µM (inactive)	7.67 µM (inactive)	24.1	7 µM (inactive)	6.3 µM (inactive)	5.58 µM (inactive)	5.18 µM (inactive)	12.5 µM (inactive)	6.03 µM (inactive)	47.9 µM (inactive)	> 10 µM (inactive)	6.98 µM (inactive)	18.7 µM (inactive)	12 µM (inactive)	4.86 µM (inactive)	
CCOC(=O)C(CO)c1nc2c([nH]c1=O)c(=O)n(C)c(=O)n2C (stereo not drawn)	> 100 µM (inactive)	> 100 µM (inactive)	> 100 µM (inactive)	> 100 µM (inactive)	> 100 µM (inactive)	> 100	0.579 µM (active)		> 100 µM (inactive)	> 100 µM (inactive)	> 100 µM (inactive)	> 100 µM (inactive)	> 100 µM (inactive)	> 100 µM (inactive)	> 100 µM (inactive)	> 100 µM (inactive)	> 100 µM (inactive)	> 100 µM (inactive)	> 100 µM (inactive)
O=c1c2c3c(sc2nc2n1sc1nc4sc5c(c4c(=O)n12)CCCC5)CCCC3	64.6 µM (inactive)	> 100 µM (inactive)	22.2 µM (inactive)	> 77.1 µM (inactive)	32.1 µM (inactive)	62.8	> 100 µM (inactive)	99.1 µM (inactive)	> 100 µM (inactive)	> 50.7 µM (inactive)	18.5 µM (inactive)	> 79.4 µM (inactive)	27.2 µM (inactive)	26.6 µM (inactive)	19.5 µM (inactive)	> 80.5 µM (inactive)	17.3 µM (inactive)	39.6 µM (inactive)	
COC(=O)/C=C/c1ccc2nncnc2c1.COC(=O)/C=C\c1ccc2nncnc2c1	23.4 µM (inactive)	48.6 µM (inactive)	> 100 µM (inactive)	21.2 µM (inactive)	62.4 µM (inactive)	29	8.17 µM (inactive)	> 100 µM (inactive)	10 µM (inactive)	> 100 µM (inactive)	56.1 µM (inactive)	33.9 µM (inactive)	96.4 µM (inactive)	21.6 µM (inactive)	> 100 µM (inactive)	43.8 µM (inactive)	> 100 µM (inactive)	9.14 µM (inactive)	
O=C(c1cc2ccccc2cc1O)N1CCCCC1	25.4 µM (inactive)	17.3 µM (inactive)	17.6 µM (inactive)		23.8 µM (inactive)	35.8	20 µM (inactive)	42.2 µM (inactive)	27.7 µM (inactive)	17.8 µM (inactive)	40.5 µM (inactive)	55.1 µM (inactive)	20.4 µM (inactive)	32.7 µM (inactive)	50.7 µM (inactive)	41.8 µM (inactive)	59.4 µM (inactive)	46 µM (inactive)	
Cc1nc(-c2ccc(Cl)cc2)cn2c1nc1ccccc12	> 100 µM (inactive)	> 100 µM (inactive)	> 100 µM (inactive)	> 100 µM (inactive)	> 86.3 µM (inactive)	19.4	5.14 µM (inactive)	> 100 µM (inactive)	> 100 µM (inactive)	> 100 µM (inactive)		> 100 µM (inactive)	> 31.6 µM (inactive)	> 43.3 µM (inactive)	> 100 µM (inactive)	> 100 µM (inactive)	> 100 µM (inactive)	> 100 µM (inactive)	> 100 µM (inactive)
Cc1cc2c(cc1C)OC(=O)CC2	> 100 µM (inactive)	> 100 µM (inactive)	> 100 µM (inactive)	> 100 µM (inactive)	> 100 µM (inactive)		> 100 µM (inactive)		> 100 µM (inactive)	> 100 µM (inactive)	> 100 µM (inactive)	> 100 µM (inactive)	> 100 µM (inactive)	> 100 µM (inactive)	> 100 µM (inactive)	> 100 µM (inactive)	> 100 µM (inactive)	> 100 µM (inactive)	> 100 µM (inactive)
CC/C=C/C(CC)C/C(C)=C\[C@]1(CC)C[C@H](CC)[C@H](CC(=O)O)OO1 (stereo partly drawn)	0.324 µM (active)	1.74 µM (inactive)	< 0.01 µM (active)	0.121 µM (active)	0.453 µM (active)	0.416	1.27 µM (inactive)	1.9 µM (inactive)	0.171 µM (active)	1.89 µM (inactive)	0.0157 µM (active)	0.0315 µM (active)	0.682 µM (active)	1.32 µM (inactive)	0.259 µM (active)		1.31 µM (inactive)	2.26 µM (inactive)	
Cc1nc2c(cc1C(=O)N/N=C/c1ccc([N+](=O)[O-])cc1)c(=O)n(C)c(=O)n2C	54.1 µM (inactive)	31.8 µM (inactive)	96.6 µM (inactive)	> 100 µM (inactive)	> 100 µM (inactive)	> 100	> 100 µM (inactive)	39.4 µM (inactive)	> 100 µM (inactive)	80.2 µM (inactive)	> 100 µM (inactive)		> 100 µM (inactive)	> 100 µM (inactive)	51.8 µM (inactive)	> 100 µM (inactive)	26.5 µM (inactive)	31.1 µM (inactive)	> 100 µM (inactive)
